Laboratory results published in patent US20180221352A1, “3-(1H-PYRROLO[2,3-C]PYRIDIN-2-YL)-1H-PYRAZOLO[3,4-B]PYRIDINES AND THERAPEUTIC USES THEREOF” (Samumed, LLC, priority 2015, published 2018).

Tests used:
Type in all cases: cell-based
[1] = tested on: primary human fibroblasts derived from IPF patients (LL29 cells); experiment: Inhibition of fibrotic process, αSMA staining in TGF-β1 treated fibroblasts; conditions: Fibroblast; for EC50: 96 h, LL29 cells, TGF-β1 20 ng/mL, 4 days, % αSMA positive cells; for inhibition at 10 µM: read-out: percent inhibition at 10 μM
Procedure, shortened: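 LL29 fibroblasts plated in F12 with 1% FBS were stimulated with TGF-β1 alongside compound, with TGF-β1 plus DMSO wells as controls. After 4 days of incubation, SYTOX green was added at 1 μM final for 30 min at room temperature.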

[2] = tested on: IL-6; experiment: IL-6 inhibition in LPS-stimulated THP-1 cells (HTRF); conditions: Homo sapiens; for EC50: THP-1 cells, LPS 500 ng/mL, 22 hours, IL6 HTRF; for inhibition at 10 µM: THP-1, read-out: percent inhibition at 10 μM
Procedure, shortened: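 Serum-reduced (1% FBS, 24 h) THP-1 cells, 5000/well, exposed to compound 2 h at 37 °C, then stimulated with 500 ng/mL LPS for 22 h. Secreted IL-6 measured by HTRF (665/620 ratio), normalised to DMSO; EC50 by four-parameter fit, duplicates.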

[3] = tested on: primary human mesenchymal stem cells (hMSCs); experiment: Induction of chondrogenesis in hMSCs (nodule count); conditions: 6 days; for Emax: relative to TGF-β3 (10 ng/mL) positive control, read-out: Max. Activity as % TGF-β3 activity; for EC50: concentration required to induce 50% levels of chondrogenesis vs TGF-β3, read-out: Conc (nM) of 50% TGF-β3 activity
Excerpt: Representative compounds were screened using primary human mesenchymal stem cells (hMSCs) to determine their ability to induce chondrogenesis (process by which cartilage is developed).
Primary human mesenchymal stem cells (hMSCs) were purchased from Lonza (Walkersville, Md.) and expanded in Mesenchymal Stem Cell Growth Media (Lonza). Cells between passage 3 and 6 were used for the experiments.
To image chondrogenic nodules, the cells were fixed using 4% formaldehyde (Electron Microscopy Sciences), and stained with 2 μg/mL Rhodamine B (Sigma-Aldrich) and 20 μM Nile Red (Sigma-Aldrich) [Johnson K., et. al, A Stem Cell-Based Approach to Cartilage Repair, Science, (2012). […] Number of nodules in each well was normalized to the average of 3 DMSO treated wells on the same plate using Excel (Microsoft Inc.). The normalized averages (fold change over DMSO) of 3 replicate wells for each compound concentration were calculated. Due to solubility limitations of some of the compounds, curve fitting was incomplete leading to inaccurate EC50 determinations.
Using TGF-β3 as a positive control, the concentration of representative compounds required to induce 50% levels of chondrogenesis is reported. In addition, the maximum activity of each compound and the respective dose that each compound reached maximum chondrogenesis activity is reported.

[4] = tested on: SW480 colon cancer cells; experiment: Cell viability assay (CellTiter-Blue); conditions: Homo sapiens; for EC50: 96 h, SW480 cell viability, four days; for inhibition at 10 µM: SW480, 96 h, read-out: percent inhibition at 10 μM
Procedure, shortened: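 Fluorescence from resazurin reduced to resorufin by metabolically active cells was the read-out, taken after ~3 h with CellTiter-Blue.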

[5] = tested on: Wnt activity (Sp5-Luc reporter, SW480 colon carcinoma cells); experiment: Wnt activity screening assay, Sp5-Luc reporter gene in SW480 cells; conditions: Homo sapiens; for EC50: Sp5-Luc reporter, SW480 cells, overnight incubation; for inhibition at 10 µM: SW480, read-out: percent inhibition at 10 μM
Procedure, shortened: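 SW480 cells stably carrying a luciferase reporter driven by an Sp5 promoter with eight TCF/LEF sites, plated overnight in 1% FBS medium at 37 °C. Luminescence read with BrightGlo. Signals normalized to DMSO-treated cells; EC50 from four-parameter variable-slope fit.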

EC50 [2] | EC50 [4] | EC50 [5] | EC50 [3] | Structure (SMILES) | EC50 [1] | Emax [3] | inhibition at 10 µM [4] | inhibition at 10 µM [1] | inhibition at 10 µM [2] | inhibition at 10 µM [5]
0.093 µM | > 10 µM | 1.68 µM |  | CCCC(=O)Nc1cncc(-c2cnc3[nH]nc(-c4cc5c(-c6cc(F)cc(CNS(C)(=O)=O)c6)cncc5[nH]4)c3c2)c1 [Compound 493, N-(5-(3-(4-(3-Fluoro-5-(methylsulfonamidomethyl)phenyl)-1H-pyrrolo[2,3-c]pyridin-2-yl)-1H-pyrazolo[3,4-b]pyridin-5-yl)pyridin-3-yl)butyramide] | 8.9 µM | 37% | 46.1% |  |  | 
0.093 µM | > 10 µM | 2.63 µM |  | CS(=O)(=O)NCc1cc(F)cc(-c2cncc3[nH]c(-c4n[nH]c5ncc(-c6cncc(NC(=O)C7CC7)c6)cc45)cc23)c1 [Compound 496, N-(5-(3-(4-(3-Fluoro-5-(methylsulfonamidomethyl)phenyl)-1H-pyrrolo[2,3-c]pyridin-2-yl)-1H-pyrazolo[3,4-b]pyridin-5-yl)pyridin-3-yl)cyclopropanecarboxamide] | 3.53 µM | 23% | 49.3% |  |  | 
> 10 µM | 3.6 µM | > 10 µM |  | CN(C)CCOc1cncc(-c2cnc3[nH]nc(-c4cc5c(-c6ccc(F)cc6)cncc5[nH]4)c3c2)c1 [Compound 531, 2-((5-(3-(4-(4-Fluorophenyl)-1H-pyrrolo[2,3-c]pyridin-2-yl)-1H-pyrazolo [3,4-b]pyridin-5-yl)pyridin-3-yl)oxy)-N,N-dimethylethan-1-amine] | > 10 µM | 28% |  | 11.4% | 22.9% | 48.5%
0.169 µM | 0.652 µM | 0.416 µM | 100 nM | Fc1ccccc1-c1cncc2[nH]c(-c3n[nH]c4ncc(-c5cn[nH]c5)cc34)cc12 [Compound 539, 3-(4-(2-Fluorophenyl)-1H-pyrrolo[2,3-c]pyridin-2-yl)-5-(1H-pyrazol-4-yl)-1H-pyrazolo[3,4-b]pyridine] | 0.099 µM | 51% |  |  |  | 
> 10 µM | > 10 µM | > 10 µM | 10 nM | Cc1ncc(-c2cnc3[nH]nc(-c4cc5c(-c6ccncc6)cncc5[nH]4)c3c2)n1C [Compound 573, 5-(1,2-Dimethyl-1H-imidazol-5-yl)-3-(4-(pyridin-4-yl)-1H-pyrrolo[2,3-c]pyridin-2-yl)-1H-pyrazolo[3,4-b]pyridine] | > 10 µM | 194% | 19.8% | 46.7% | 0% | 7.1%
